Literature values, collected in article PMC3018413, “Uptake and Metabolism of the Novel Peptide Angiotensin-(1-12) by Neonatal Cardiac Myocytes” (PLoS ONE, 2011).

Experiments:
[1] = system: Ang II formation from Ang-(1–12); settings: ref Prosser et al. [29] as printed
Excerpt: In the controlled environment of a cell culture system, neonatal cardiac myocytes of SHR and WKY metabolized ^125I-Ang-(1–12) into Ang I, leading to sequential production of Ang II, Ang-(1–7), and other smaller angiotensin fragments. […] This new observation is in ...

[2] = system: human renal tubular epithelial cells

Molecule: CC(C)C[C@H](NC(=O)[C@@H](NC(=O)N[C@@H](Cc1ccccc1)C(=O)O)[C@@H]1CCN=C(N)N1)C(=O)N[C@H](C=O)Cc1ccccc1 [chymostatin]
- inhibition of Ang II formation from Ang-(1–12) [1]: completely inhibited

B1: angiotensinogen: angiotensinogen protein bound to human renal tubular epithelial cells, cited study (protein, UniProt P01019 25-476, looked up)
Angiotensinogen: DRVYIHPFHLVIHNESTCEQLAKANAGKPKDPTFIPAPIQAKTSPVDEKALQDQLVLVAAKLDTEDKLRAAMVGMLANFLGFRIYGMHSELWGVVHGATVLSPTAVFGTLASLYLGALDHTADRLQAILGVPWKDKNCTSRLDAHKVLSALQAVQGLLVAQGRADSQAQLLLSTVVGVFTAPGLHLKQPFVQGLALYTPVVLPRSLDFTELDVAAEKIDRFMQAVTGWKTGCSLMGASVDSTLAFNTYVHFQGKMKGFSLLAEPQEFWVDNSTSVSVPMLSGMGTFQHWSDIQDNFSVTQVPFTESACLLLIQPHYASDLDKVEGLTFQQNSLNWMKKLSPRTIHLTMPQLVLQGSYDLQDLLAQAELPAILHTELNLQKLSNDRIRVGEVLNSIFFELEADEREPTESTQQLNKPEVLEVTLNRPFLFAVYDQSATALHFLGRVANPLSTA
- bound angiotensinogen that could be displaced [2]: ≤ 50%
